In patent US10344330B2, “Glatiramer acetate response biomarker mRNA potency assay” (Mylan Inc., priority 2013, dated 2019):

Columns and labels:
Type in all cases: cell-based, mouse
[1] = test system: IL-4 mRNA in LN cells; assay: IL-4 mRNA by real-time PCR in LN cells of GA-immunized CD-1, BALB/cByJ, SJL/J mice (Example III); settings: 6 hours
Description: (§1) On Day 0, mice were immunized with 250 μg GA (GMA, Mylan Pharmaceuticals, Inc.) and CFA. The GA solution (20 mg/mL) was diluted with Dulbecco's Phosphate-Buffered Saline to 5 mg/mL. The dosing formulation consisted of equal volumes of the diluted GA solution (5 mg/mL) and CFA solution, mixed until well-emulsified. Animals were weighed and allocated to groups. Animals were dosed by injection into four footpads. The injection volume per animal was 0.1 mL (about 10 μL into each front footpad, and 40 μL into each hind footpad).
(§2) Immunized animals were euthanized by cervical dislocation on Day 10 post-immunization. Lymph node cells were isolated from animals and treated with Myelin Basic Protein (MBP, a negative control), Concanavalin A (ConA, a positive control) or GA as shown in Table 16. Lymph nodes in the axillary and popliteal regions were removed aseptically in a purifier clean bench. […] The LN were then washed 3 times with −5 mL of RPMI medium, and isolated by pressing the LN with a syringe plunger. […] The cell suspension was centrifuged at about 200×g for 10 minutes at about 4° C. and re-suspended in ice cold enriched DCCM-1 medium. Cells were seeded in 96-well tissue culture plates.
(§3) LN cells isolated from GA-immunized animals were stimulated with GA (GMA, Mylan Pharmaceuticals, Inc.) at concentrations as indicated in Tables 16 and 17. A positive control was prepared by treating LN cells with 2.5 μg/mL concavalin A (ConA, a non-specific T cell stimulant). Myelin basic protein (MBP, 10 μg/mL) and enriched DCCM-1 medium served as negative controls. The cells from all groups each were stimulated with the same GA lot. Each reaction was set up in triplicate.
(§4) After incubation at about 37° C. in a humidified CO2 incubator for 6 hours, the cells were lysed for total RNA isolation. Total RNA was isolated from treated LN cells using SV 96 Total RNA Isolation System according to the manufacturer's protocol (Promega, Cat. #Z3500). Cells were washed once with Phosphate Buffered Saline (PBS) and lysed in RNA lysis buffer. The lysate was transferred to wells of the SV 96 binding plate. Samples were washed with RNA wash solution and treated with DNase. Total RNA was eluted with nuclease-free water from the binding plate.
(§5) After the reverse transcriptase reaction was completed, cDNA samples were used directly for real-time PCR to measure the response biomarker mRNA levels produced by the stimulated cells. […] All probes for target genes contained FAM dye, and probes for the internal control contained VIC®/MGB dye. Samples will be prepared and run in 96-well plates using a Real-Time PCR system (7500, Life Technologies). This system allows direct detection of PCR-product formation by measuring the increase in fluorescent emission continuously during the PCR reaction. A relative quantitation method was used to analyze changes in mouse IL-2, IL-4, IL-5, IL-10, IL-13, IFN-γ and TNF-α expression in GA-treated samples relative to the untreated control (enriched DCCM-1 treated) samples. The Real-Time PCR program was:
(§6) The levels of mouse cytokine amplicons (IL-2, IL-4, IL-5, IL-10, IL-13, mIFN-γ and TNF-α) were normalized to internal probe levels (GAPDH) from the same samples. The following equations were used to calculate the relative increase in response to GA stimulation compared to the control sample: ΔCT=CT_target−CT_reference ΔΔCT=−ΔCT_Treated−CT_VC

[2] = test system: IL-2 secreted by LN cells; assay: IL-2 secretion by GA-stimulated LN cells, MSD 9-plex ELISA (Example II); settings: for IL-2 secretion response ratio (treated cell medium to control DCCM1 medium): 21 hr
[3] = test system: IL-13 mRNA in LN cells; assay: IL-13 mRNA by real-time PCR in LN cells of GA-immunized CD-1, BALB/cByJ, SJL/J mice (Example III); settings: 6 hours
Description: as §1, §2, §3, §4, §5, §6

[4] = Group 1C: CD-1, GA-immunized, stimulation 2.5 μg/mL
[5] = Group 2C: BALB/cByJ, GA-immunized, stimulation 2.5 μg/mL
[6] = Group 3C: SJL/J, GA-immunized, stimulation 2.5 μg/mL
[7] = BALB/cByJ, immunized GA Lower Limb
[8] = C57BL10J, immunized GA Intraplantar
[9] = C57BL10J, immunized GA Lower Limb
[10] = Group 1C: CD-1, GA-immunized, stimulation 0.3 μg/mL
[11] = Group 1C: CD-1, GA-immunized, stimulation 1 μg/mL
[12] = Group 1C: CD-1, GA-immunized, stimulation 3 μg/mL
[13] = Group 1C: CD-1, GA-immunized, stimulation 10 μg/mL
[14] = Group 2C: BALB/cByJ, GA-immunized, stimulation 0.3 μg/mL
[15] = Group 2C: BALB/cByJ, GA-immunized, stimulation 1 μg/mL
[16] = Group 2C: BALB/cByJ, GA-immunized, stimulation 3 μg/mL
[17] = Group 2C: BALB/cByJ, GA-immunized, stimulation 10 μg/mL
[18] = Group 3C: SJL/J, GA-immunized, stimulation 0.3 μg/mL
[19] = Group 3C: SJL/J, GA-immunized, stimulation 1 μg/mL
[20] = Group 3C: SJL/J, GA-immunized, stimulation 3 μg/mL
[21] = Group 3C: SJL/J, GA-immunized, stimulation 10 μg/mL

Concanavalin A [ConA, reference compound]
IL-4 mRNA Expression [1, 4]: 23.8 fold change vs control | IL-4 mRNA Expression [1, 5]: 27.2 fold change vs control | IL-4 mRNA Expression [1, 6]: 29.2 fold change vs control | IL-2 secretion response ratio (treated cell medium to control DCCM1 medium) [2, 7]: 283.65 | IL-2 secretion response ratio (treated cell medium to control DCCM1 medium) [2, 8]: 40.09 | IL-2 secretion response ratio (treated cell medium to control DCCM1 medium) [2, 9]: 31.11 | IL-2 secretion response ratio (treated cell medium to control DCCM1 medium) ([2]; CD-1, immunized GA Lower Limb): 19.64 | IL-13 mRNA Expression [3, 4]: 31.3 fold change vs control | IL-13 mRNA Expression [3, 5]: 32.0 fold change vs control | IL-13 mRNA Expression [3, 6]: 24.4 fold change vs control

L-glutamic acid polymer with L-alanine, L-lysine and L-tyrosine, acetate (salt) [GA]
IL-4 mRNA Expression [1, 10]: 1.6 fold change vs control | IL-4 mRNA Expression [1, 11]: 4.7 fold change vs control | IL-4 mRNA Expression [1, 12]: 6.1 fold change vs control | IL-4 mRNA Expression [1, 13]: 11.2 fold change vs control | IL-4 mRNA Expression [1, 14]: 4.2 fold change vs control | IL-4 mRNA Expression [1, 15]: 6.5 fold change vs control | IL-4 mRNA Expression [1, 16]: 10.1 fold change vs control | IL-4 mRNA Expression [1, 17]: 9.8 fold change vs control | IL-4 mRNA Expression [1, 18]: 2.0 fold change vs control | IL-4 mRNA Expression [1, 19]: 5.2 fold change vs control | IL-4 mRNA Expression [1, 20]: 10.0 fold change vs control | IL-4 mRNA Expression [1, 21]: 15.3 fold change vs control | IL-2 secretion, dose response to GA (in words) ([2]; LN cells from each of the three mouse strains): dose-dependent manner | IL-13 mRNA Expression [3, 10]: 1.7 fold change vs control | IL-13 mRNA Expression [3, 11]: 3.3 fold change vs control | IL-13 mRNA Expression [3, 12]: 9.4 fold change vs control | IL-13 mRNA Expression [3, 13]: 12.3 fold change vs control | IL-13 mRNA Expression [3, 14]: 3.2 fold change vs control | IL-13 mRNA Expression [3, 15]: 9.1 fold change vs control | IL-13 mRNA Expression [3, 16]: 12.4 fold change vs control | IL-13 mRNA Expression [3, 17]: 12.6 fold change vs control | IL-13 mRNA Expression [3, 18]: 1.7 fold change vs control | IL-13 mRNA Expression [3, 19]: 7.3 fold change vs control | IL-13 mRNA Expression [3, 20]: 12.9 fold change vs control | IL-13 mRNA Expression [3, 21]: 20.0 fold change vs control

B1: MBP: myelin basic protein, a negative control (protein, UniProt P02686 1-304, looked up)
Myelin basic protein: MGNHAGKRELNAEKASTNSETNRGESEKKRNLGELSRTTSEDNEVFGEADANQNNGTSSQDTAVTDSKRTADPKNAWQDAHPADPGSRPHLIRLFSRDAPGREDNTFKDRPSESDELQTIQEDSAATSESLDVMASQKRPSQRHGSKYLATASTMDHARHGFLPRHRDTGILDSIGRFFGGDRGAPKRGSGKDSHHPARTAHYGSLPQKSHGRTQDENPVVHFFKNIVTPRTPPPSQGKGRGLSLSRFSWGAEGQRPGFGYGGRASDYKSAHKGFKGVDAQGTLSKIFKLGGRDSRSGSPMARR
IL-4 mRNA Expression [1, 13]: 0.6 fold change vs control | IL-4 mRNA Expression [1, 17]: 1.1 fold change vs control | IL-4 mRNA Expression [1, 21]: 0.5 fold change vs control | IL-2 secretion response ratio (treated cell medium to control DCCM1 medium) [2, 7]: 1.13 | IL-2 secretion response ratio (treated cell medium to control DCCM1 medium) [2, 8]: 1.18 | IL-2 secretion response ratio (treated cell medium to control DCCM1 medium) [2, 9]: 1.30 | IL-2 secretion response ratio (treated cell medium to control DCCM1 medium) ([2]; CD-1, immunized GA Lower Limb): 1.29 | IL-13 mRNA Expression [3, 13]: 1.5 fold change vs control | IL-13 mRNA Expression [3, 17]: 0.8 fold change vs control | IL-13 mRNA Expression [3, 21]: 0.6 fold change vs control
